Laboratory results as given in PubChem BioAssay AID2060512 (Molecular Pharmacology Branch, DTP, NCI, 2025).
Blank lines part the entries; values can stand above or below the molecule they belong to.

Tested on: 186277-243-T-J2-PDC complex spheroid viability
Experiment: Anticancer human tumor 186277-243-T-J2-PDC patient-derived colon adenocarcinoma cell line growth inhibition [GQUAD]
Details: for IC50: curve of first compound; for viability, T/C: stronger effect = lower value
Procedure, shortened: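 Tumor cells were grown as complex spheroids with HUVEC endothelial cells and mesenchymal stem cells as stroma. G-quadruplex stabilizers were combined with targeted agents over half-log dilutions from near the clinical Cmax, or from 10 microM.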

[1] = second compound 0.0316 µM, first compound 0.0316 µM
[2] = second compound 0.0316 µM, first compound 0.1 µM
[3] = second compound 0.0316 µM, first compound 0.316 µM
[4] = second compound 0.0316 µM, first compound 1 µM
[5] = second compound 0.0316 µM, first compound 3.16 µM
[6] = second compound 0.0316 µM, first compound 10 µM
[7] = second compound 0.1 µM, first compound 0.0316 µM
[8] = second compound 0.1 µM, first compound 0.1 µM
[9] = second compound 0.1 µM, first compound 0.316 µM
[10] = second compound 0.1 µM, first compound 1 µM
[11] = second compound 0.1 µM, first compound 3.16 µM
[12] = second compound 0.1 µM, first compound 10 µM
[13] = second compound 0.316 µM, first compound 0.0316 µM
[14] = second compound 0.316 µM, first compound 0.1 µM
[15] = second compound 0.316 µM, first compound 0.316 µM
[16] = second compound 0.316 µM, first compound 1 µM
[17] = second compound 0.316 µM, first compound 3.16 µM
[18] = second compound 0.316 µM, first compound 10 µM
[19] = second compound 1 µM, first compound 0.0316 µM
[20] = second compound 1 µM, first compound 0.1 µM
[21] = second compound 1 µM, first compound 0.316 µM
[22] = second compound 1 µM, first compound 1 µM
[23] = second compound 1 µM, first compound 3.16 µM
[24] = second compound 1 µM, first compound 10 µM
[25] = second compound 3.16 µM, first compound 0.0316 µM
[26] = second compound 3.16 µM, first compound 0.1 µM
[27] = second compound 3.16 µM, first compound 0.316 µM
[28] = second compound 3.16 µM, first compound 1 µM
[29] = second compound 3.16 µM, first compound 3.16 µM
[30] = second compound 3.16 µM, first compound 10 µM
[31] = second compound 10 µM, first compound 0.0316 µM
[32] = second compound 10 µM, first compound 0.1 µM
[33] = second compound 10 µM, first compound 0.316 µM
[34] = second compound 10 µM, first compound 1 µM
[35] = second compound 10 µM, first compound 3.16 µM
[36] = second compound 10 µM, first compound 10 µM
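Also: spheroids exposed to drugs for 7 days.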
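For viability, T/C in this document: 100% = DMSO vehicle control viability.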

- IC50 (second compound 0.0316 µM): 6.12 µM
- IC50 (second compound 0.1 µM): 4.93 µM
- IC50 (second compound 0.316 µM): 4.41 µM
- IC50 (second compound 1 µM): < 0.0316 µM
- IC50 (second compound 3.16 µM): < 0.0316 µM
- IC50 (second compound 10 µM): < 0.0316 µM
SMILES: CCCS(=O)(=O)Nc1ccc(F)c(C(=O)c2c[nH]c3ncc(-c4ccc(Cl)cc4)cc23)c1F + Cc1cnc(CNC(=O)c2c(=O)c3ccc(N4CCCN(C)CC4)nc3n3c2sc2ccccc23)cn1
- viability, T/C [1]: 113%
- viability, T/C [2]: 102%
- viability, T/C [3]: 116%
- viability, T/C [4]: 95.4%
- viability, T/C [5]: 88.3%
- viability, T/C [6]: 23.4%
- viability, T/C [7]: 79.3%
- viability, T/C [8]: 72.4%
- viability, T/C [9]: 93.1%
- viability, T/C [10]: 74.1%
- viability, T/C [11]: 72.3%
- viability, T/C [12]: 14.5%
- viability, T/C [13]: 63.6%
- viability, T/C [14]: 62.3%
- viability, T/C [15]: 68.5%
- viability, T/C [16]: 59%
- viability, T/C [17]: 65.7%
- viability, T/C [18]: 16.1%
- viability, T/C [19]: 47.7%
- viability, T/C [20]: 47%
- viability, T/C [21]: 54.8%
- viability, T/C [22]: 49.3%
- viability, T/C [23]: 47.5%
- viability, T/C [24]: 15.8%
- viability, T/C [25]: 31.3%
- viability, T/C [26]: 43.9%
- viability, T/C [27]: 48.8%
- viability, T/C [28]: 41%
- viability, T/C [29]: 38.3%
- viability, T/C [30]: 9.83%
- viability, T/C [31]: 47.6%
- viability, T/C [32]: 36.8%
- viability, T/C [33]: 37.3%
- viability, T/C [34]: 40.4%
- viability, T/C [35]: 37.8%
- viability, T/C [36]: 0.36%

- IC50 (second compound 0.0316 µM): > 10 µM
- IC50 (second compound 0.1 µM): > 10 µM
- IC50 (second compound 0.316 µM): > 10 µM
- IC50 (second compound 1 µM): < 0.0316 µM
- IC50 (second compound 3.16 µM): < 0.0316 µM
- IC50 (second compound 10 µM): < 0.0316 µM
SMILES: COc1ncnc(C2CC2)c1-c1ncc2cnn(Cc3ccc(-c4nc(C(F)(F)F)cn4C(C)C)cc3)c2n1 + Cc1cnc(CNC(=O)c2c(=O)c3ccc(N4CCCN(C)CC4)nc3n3c2sc2ccccc23)cn1
- viability, T/C [1]: 90%
- viability, T/C [2]: 73.9%
- viability, T/C [3]: 86.6%
- viability, T/C [4]: 67%
- viability, T/C [5]: 79.1%
- viability, T/C [6]: 76.1%
- viability, T/C [7]: 67.3%
- viability, T/C [8]: 55.1%
- viability, T/C [9]: 62.3%
- viability, T/C [10]: 51.5%
- viability, T/C [11]: 69%
- viability, T/C [12]: 62.1%
- viability, T/C [13]: 55.5%
- viability, T/C [14]: 57.2%
- viability, T/C [15]: 61.6%
- viability, T/C [16]: 53.1%
- viability, T/C [17]: 62.6%
- viability, T/C [18]: 48.5%
- viability, T/C [19]: 42.4%
- viability, T/C [20]: 39.3%
- viability, T/C [21]: 38.2%
- viability, T/C [22]: 36.1%
- viability, T/C [23]: 48.1%
- viability, T/C [24]: 33.2%
- viability, T/C [25]: 27.5%
- viability, T/C [26]: 39.1%
- viability, T/C [27]: 43.6%
- viability, T/C [28]: 42.6%
- viability, T/C [29]: 42.5%
- viability, T/C [30]: 37.4%
- viability, T/C [31]: 29.4%
- viability, T/C [32]: 41.9%
- viability, T/C [33]: 34.3%
- viability, T/C [34]: 32.9%
- viability, T/C [35]: 37.3%
- viability, T/C [36]: 32.8%

- IC50 (second compound 0.0316 µM): 0.148 µM
- IC50 (second compound 0.1 µM): 0.102 µM
- IC50 (second compound 0.316 µM): 0.0619 µM
- IC50 (second compound 1 µM): < 0.0316 µM
- IC50 (second compound 3.16 µM): < 0.0316 µM
- IC50 (second compound 10 µM): < 0.0316 µM
SMILES: O=C(NO)c1cnc(N2CCN(S(=O)(=O)c3ccc4ccccc4c3)CC2)nc1 + Cc1cnc(CNC(=O)c2c(=O)c3ccc(N4CCCN(C)CC4)nc3n3c2sc2ccccc23)cn1
- viability, T/C [1]: 96.1%
- viability, T/C [2]: 71.1%
- viability, T/C [3]: 9.06%
- viability, T/C [4]: 0.26%
- viability, T/C [5]: 0.12%
- viability, T/C [6]: 0.12%
- viability, T/C [7]: 66.5%
- viability, T/C [8]: 50.9%
- viability, T/C [9]: 9.09%
- viability, T/C [10]: 0.28%
- viability, T/C [11]: 0.09%
- viability, T/C [12]: 0.1%
- viability, T/C [13]: 64.5%
- viability, T/C [14]: 39.7%
- viability, T/C [15]: 8.31%
- viability, T/C [16]: 0.44%
- viability, T/C [17]: 0.08%
- viability, T/C [18]: 0.1%
- viability, T/C [19]: 40.2%
- viability, T/C [20]: 34.2%
- viability, T/C [21]: 8.56%
- viability, T/C [22]: 0.11%
- viability, T/C [23]: 0.08%
- viability, T/C [24]: 0.1%
- viability, T/C [25]: 33.3%
- viability, T/C [26]: 24.1%
- viability, T/C [27]: 0.15%
- viability, T/C [28]: 0.1%
- viability, T/C [29]: 0.1%
- viability, T/C [30]: 0.12%
- viability, T/C [31]: 34.2%
- viability, T/C [32]: 19.8%
- viability, T/C [33]: 0.24%
- viability, T/C [34]: 0.14%
- viability, T/C [35]: 0.16%
- viability, T/C [36]: 0.18%
